Experimental findings from the SangsterLogP compilation are described below.

Each structure is given as a SMILES string.

The logP is a log measure of how a compound divides between an organic and an aqueous phase. Low readings indicate a more hydrophilic compound, high ones a more lipophilic compound. Molecule `FC(F)(F)F` displayed a logP of 1.36. The value for `CC(F)(Cl)Cl` was 1.95; that for `FC(F)=C(F)C(F)(F)F` was 1.98. `FCC(F)(F)Cl` registered a logP of 1.45. To `FC(F)C(F)(F)F` belongs 1.45; to `FC(F)=CCl`, 1.52. Regarding `FC(C(F)(F)F)C(F)(F)F`, the logP was 2.22. The value for `FC(Cl)(Cl)Cl` was 2.26; that for `FCC(F)(F)F` was 1.06; that for `FC(Cl)C(F)(F)F` (stereo unspecified) was 1.75. To `FCC(F)Cl` (stereo unspecified) belongs 1.62.
